Read-outs that look alike come from different tables or passages of the source.
What was measured:
JAK2 = JAK2 (Homo sapiens (Human), UniProt O60674); assay: pSTAT5 Cell Assay (MSD, TF1 cells); format: cell-based
Outline: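 Serum-starved TF1 cells were pretreated with compound for 1 h (10-point four-fold series from 10 μM), then stimulated with 30 ng/mL IL-3 for 15 min. pSTAT5 in lysates was measured by MSD immunoassay. IC50 came from a 4-parameter logistic fit.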

JAK1 = JAK1 (Homo sapiens (Human), UniProt P23458); assay: pSTAT3 Cell Assay (MSD, TF1 cells); format: cell-based
JAK1, sequence (P23458 whole entry): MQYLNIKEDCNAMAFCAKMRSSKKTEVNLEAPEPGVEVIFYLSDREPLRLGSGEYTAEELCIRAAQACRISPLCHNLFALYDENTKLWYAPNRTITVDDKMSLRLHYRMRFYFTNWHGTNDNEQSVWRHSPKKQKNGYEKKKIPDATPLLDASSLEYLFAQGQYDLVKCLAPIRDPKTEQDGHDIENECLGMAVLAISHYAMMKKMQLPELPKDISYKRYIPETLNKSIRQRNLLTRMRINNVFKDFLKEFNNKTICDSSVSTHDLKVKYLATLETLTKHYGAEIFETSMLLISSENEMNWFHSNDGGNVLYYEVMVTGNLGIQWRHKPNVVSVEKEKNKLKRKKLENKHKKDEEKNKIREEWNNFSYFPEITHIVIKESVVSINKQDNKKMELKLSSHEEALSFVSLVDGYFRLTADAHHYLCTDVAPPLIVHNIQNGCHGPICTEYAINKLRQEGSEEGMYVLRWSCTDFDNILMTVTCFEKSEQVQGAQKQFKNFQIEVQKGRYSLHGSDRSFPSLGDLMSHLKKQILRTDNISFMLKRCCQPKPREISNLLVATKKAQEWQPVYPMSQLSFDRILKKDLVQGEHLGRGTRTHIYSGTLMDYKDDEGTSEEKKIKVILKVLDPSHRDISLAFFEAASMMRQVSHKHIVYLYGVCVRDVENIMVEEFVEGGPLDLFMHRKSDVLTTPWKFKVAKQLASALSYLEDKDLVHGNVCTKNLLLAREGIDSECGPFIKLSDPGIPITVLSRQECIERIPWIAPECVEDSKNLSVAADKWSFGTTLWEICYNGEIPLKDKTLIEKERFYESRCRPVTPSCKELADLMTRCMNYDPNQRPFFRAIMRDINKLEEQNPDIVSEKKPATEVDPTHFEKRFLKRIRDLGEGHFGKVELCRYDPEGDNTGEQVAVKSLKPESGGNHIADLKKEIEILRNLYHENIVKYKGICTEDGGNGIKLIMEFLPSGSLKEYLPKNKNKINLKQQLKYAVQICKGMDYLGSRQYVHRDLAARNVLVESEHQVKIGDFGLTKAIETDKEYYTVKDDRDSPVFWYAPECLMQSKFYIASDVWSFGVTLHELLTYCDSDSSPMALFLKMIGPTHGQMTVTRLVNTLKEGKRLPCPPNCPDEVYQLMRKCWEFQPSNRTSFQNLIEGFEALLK
Outline: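 IC50 values derive from 4-parameter logistic fits of normalized pSTAT3 signal, measured by MSD with anti-STAT3 antibodies. TF1 cells, serum-starved beforehand, received compound for 1 hour (top concentration 10 μM, four-fold steps, 10 points) before a 15-minute IL-6 (30 ng/mL) stimulus.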

JH2 domain of human Tyk2 = JH2 domain of human Tyk2 (Homo sapiens (Human), UniProt P29597); assay: JH2 Biochemical Assay (TR-FRET probe displacement); format: binding
JH2 domain of human Tyk2, sequence (P29597 575-876): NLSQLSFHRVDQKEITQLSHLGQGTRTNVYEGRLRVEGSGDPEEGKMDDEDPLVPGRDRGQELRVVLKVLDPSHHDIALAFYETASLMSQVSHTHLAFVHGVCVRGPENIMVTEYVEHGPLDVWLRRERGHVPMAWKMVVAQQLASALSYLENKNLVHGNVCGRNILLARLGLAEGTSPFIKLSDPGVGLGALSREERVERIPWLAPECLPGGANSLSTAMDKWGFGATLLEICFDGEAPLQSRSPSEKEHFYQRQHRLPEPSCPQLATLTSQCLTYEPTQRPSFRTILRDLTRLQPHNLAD

Tyk2 = Tyk2 (Homo sapiens (Human), UniProt P29597); assay: pSTAT4 Cell Assay (MSD, NK92 cells); format: cell-based
Tyk2, sequence (P29597 whole entry, the tested form may be a part): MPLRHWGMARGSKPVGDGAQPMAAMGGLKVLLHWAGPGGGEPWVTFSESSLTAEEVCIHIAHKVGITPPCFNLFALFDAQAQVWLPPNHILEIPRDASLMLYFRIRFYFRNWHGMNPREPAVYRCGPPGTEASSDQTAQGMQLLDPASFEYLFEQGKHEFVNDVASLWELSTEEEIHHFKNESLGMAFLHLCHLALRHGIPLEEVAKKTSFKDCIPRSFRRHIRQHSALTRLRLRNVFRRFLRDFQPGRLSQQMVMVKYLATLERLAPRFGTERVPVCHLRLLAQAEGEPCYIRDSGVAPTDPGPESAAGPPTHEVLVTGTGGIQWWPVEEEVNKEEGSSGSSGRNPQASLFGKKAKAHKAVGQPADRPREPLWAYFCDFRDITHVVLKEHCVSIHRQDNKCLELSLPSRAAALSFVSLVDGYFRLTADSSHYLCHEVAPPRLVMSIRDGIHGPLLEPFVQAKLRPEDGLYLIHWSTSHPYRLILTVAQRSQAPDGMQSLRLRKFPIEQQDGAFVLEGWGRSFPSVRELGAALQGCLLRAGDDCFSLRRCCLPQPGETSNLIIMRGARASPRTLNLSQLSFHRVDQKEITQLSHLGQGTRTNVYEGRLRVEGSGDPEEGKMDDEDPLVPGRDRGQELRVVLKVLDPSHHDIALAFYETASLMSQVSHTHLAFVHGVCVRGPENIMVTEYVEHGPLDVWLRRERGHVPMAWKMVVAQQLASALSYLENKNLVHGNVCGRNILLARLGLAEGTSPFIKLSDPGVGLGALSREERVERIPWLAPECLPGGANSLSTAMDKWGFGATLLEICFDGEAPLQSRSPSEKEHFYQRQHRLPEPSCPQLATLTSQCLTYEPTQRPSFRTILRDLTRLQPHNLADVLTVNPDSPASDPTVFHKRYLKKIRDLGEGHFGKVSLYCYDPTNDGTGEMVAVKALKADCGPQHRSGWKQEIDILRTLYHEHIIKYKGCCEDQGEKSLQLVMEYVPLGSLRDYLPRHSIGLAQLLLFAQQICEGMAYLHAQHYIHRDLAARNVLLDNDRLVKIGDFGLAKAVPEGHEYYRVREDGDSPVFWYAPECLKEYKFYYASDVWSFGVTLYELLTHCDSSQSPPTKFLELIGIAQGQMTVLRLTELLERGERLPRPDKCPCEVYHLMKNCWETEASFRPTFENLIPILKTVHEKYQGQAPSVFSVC

[1] = TR-FRET probe displacement, JH2 domain of human Tyk2
[2] = TR-FRET probe displacement, JH2 domain
[3] = JH2 domain of human Tyk2, TR-FRET probe displacement

JAK2, sequence (O60674 whole entry): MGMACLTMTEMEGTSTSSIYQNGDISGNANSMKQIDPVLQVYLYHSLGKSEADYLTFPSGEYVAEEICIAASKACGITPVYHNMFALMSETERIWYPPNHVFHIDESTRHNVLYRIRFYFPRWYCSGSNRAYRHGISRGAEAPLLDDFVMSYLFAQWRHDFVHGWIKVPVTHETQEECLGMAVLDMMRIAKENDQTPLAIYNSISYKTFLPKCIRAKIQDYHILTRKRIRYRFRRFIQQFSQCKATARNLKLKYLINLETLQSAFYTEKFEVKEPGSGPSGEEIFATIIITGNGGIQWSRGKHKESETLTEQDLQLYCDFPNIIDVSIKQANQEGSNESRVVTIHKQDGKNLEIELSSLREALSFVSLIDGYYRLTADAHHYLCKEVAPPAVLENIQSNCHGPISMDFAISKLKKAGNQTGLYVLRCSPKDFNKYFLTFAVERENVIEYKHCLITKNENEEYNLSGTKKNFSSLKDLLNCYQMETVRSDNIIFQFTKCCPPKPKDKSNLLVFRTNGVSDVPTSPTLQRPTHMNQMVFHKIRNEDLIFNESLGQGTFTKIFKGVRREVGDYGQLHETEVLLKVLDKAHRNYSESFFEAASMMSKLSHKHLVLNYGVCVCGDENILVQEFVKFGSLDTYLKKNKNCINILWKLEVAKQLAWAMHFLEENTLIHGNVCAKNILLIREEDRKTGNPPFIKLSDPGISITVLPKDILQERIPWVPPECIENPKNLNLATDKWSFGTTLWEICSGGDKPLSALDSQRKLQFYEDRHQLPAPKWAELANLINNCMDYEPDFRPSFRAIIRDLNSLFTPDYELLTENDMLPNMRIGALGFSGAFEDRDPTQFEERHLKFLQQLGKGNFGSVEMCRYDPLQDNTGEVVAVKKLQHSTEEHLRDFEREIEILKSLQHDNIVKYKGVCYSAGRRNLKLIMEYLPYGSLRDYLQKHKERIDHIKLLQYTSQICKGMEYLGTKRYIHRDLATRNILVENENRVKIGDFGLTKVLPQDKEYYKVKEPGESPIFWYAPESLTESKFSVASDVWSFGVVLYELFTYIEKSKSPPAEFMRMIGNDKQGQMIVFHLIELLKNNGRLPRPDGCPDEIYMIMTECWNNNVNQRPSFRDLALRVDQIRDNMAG

Row | Structure (SMILES) | IC50 (JAK2; IL-3 stimulation, MSD) | IC50 (JAK1; IL-6 stimulation, MSD) | IC50 (JH2 domain of human Tyk2; [1]) | IC50 (Tyk2; MSD) | IC50 (JAK2; IL-3 stimulated) | IC50 (JAK1; IL-6 stimulated) | IC50 (JH2 domain of human Tyk2; [2]) | IC50 (Tyk2) | IC50 (JAK2; IL-3 stimulated, MSD) | IC50 (JAK1; IL-6 stimulated, MSD) | IC50 (JH2 domain of human Tyk2; [3])
1 | CO[C@H]1C[C@H](Oc2cnc(NC(C)=O)cc2Nc2cc(OC3CC3)nc(C(C)(F)F)n2)C1 [Example 350, N-(4-((6-cyclopropoxy-2-(1,1-difluoroethyl)pyrimidin-4-yl)amino)-5-((1r,3r)-3-methoxycyclobutoxy)pyridin-2-yl)acetamide] | ≥ 1000 nM | ≥ 1000 nM | ≤ 10 nM | 10 to 100 nM |  |  |  |  |  |  | 
2 | COCc1cnc(-c2cnc(NC(C)=O)cc2Nc2cc(C)nc(C(C)(F)F)n2)cn1 [Example 834, N-(4-((2-(1,1-difluoroethyl)-6-methylpyrimidin-4-yl)amino)-5-(5-(methoxymethyl)pyrazin-2-yl)pyridin-2-yl)acetamide] |  |  |  |  | ≥ 1000 nM | ≥ 1000 nM | ≤ 10 nM | ≤ 10 nM |  |  | 
3 | CCOc1cnc(NC(C)=O)cc1Nc1cc(-c2cnn(C(C)C)c2)nc(C(C)(F)F)n1 [Example 306, N-(4-((2-(1,1-difluoroethyl)-6-(1-isopropyl-1H-pyrazol-4-yl)pyrimidin-4-yl)amino)-5-ethoxypyridin-2-yl)acetamide] | ≥ 1000 nM | ≥ 1000 nM | ≤ 10 nM | ≤ 10 nM |  |  |  |  |  |  | 
4 | COCCOc1cnc(NC(C)=O)cc1Nc1cc(OC)nc(C(C)(F)F)n1 [Example 21, N-(4-((2-(1,1-difluoroethyl)-6-methoxypyrimidin-4-yl)amino)-5-(2-methoxyethoxy)pyridin-2-yl)acetamide] | ≥ 1000 nM | ≥ 1000 nM | ≤ 10 nM | 10 to 100 nM |  |  |  |  |  |  | 
5 | CC(=O)Nc1cc(Nc2cc(C)nc(C(C)(F)F)n2)c(-c2ccc(C#N)cn2)cn1 [Example 145, N-(5-cyano-4′-((2-(1,1-difluoroethyl)-6-methylpyrimidin-4-yl)amino)-[2,3′-bipyridin]-6′-yl)acetamide] | ≥ 1000 nM | ≥ 1000 nM | ≤ 10 nM | ≤ 10 nM |  |  |  |  |  |  | 
6 | CC(=O)Nc1cc(Nc2cc(C)nc(C(C)(F)F)n2)c(-c2ncccn2)cn1 [Example 668, N-(4-((2-(1,1-difluoroethyl)-6-methylpyrimidin-4-yl)amino)-5-(pyrimidin-2-yl)pyridin-2-yl)acetamide] |  |  |  | ≤ 10 nM |  |  |  |  | ≥ 1000 nM | ≥ 1000 nM | ≤ 10 nM
7 | CC(=O)Nc1cc(Nc2cc(C)nc(C(C)(F)F)n2)c(-c2cocn2)cn1 [Example 596, N-(4-((2-(1,1-difluoroethyl)-6-methylpyrimidin-4-yl)amino)-5-(oxazol-4-yl)pyridin-2-yl)acetamide] |  |  |  | ≤ 10 nM |  |  |  |  | ≥ 1000 nM | ≥ 1000 nM | ≤ 10 nM
8 | CCOc1cnc(NC(C)=O)cc1Nc1cc(CC)nc(C(C)(F)F)n1 [Example 12, N-(4-((2-(1,1-difluoroethyl)-6-ethylpyrimidin-4-yl)amino)-5-ethoxypyridin-2-yl)acetamide] | ≥ 1000 nM | ≥ 1000 nM | ≤ 10 nM | 10 to 100 nM |  |  |  |  |  |  | 
9 | CC(=O)Nc1cc(Nc2ccnc(C(C)(F)F)n2)c(-c2cc(C)ncn2)cn1 [Example 201, N-(4-((2-(1,1-difluoroethyl)pyrimidin-4-yl)amino)-5-(6-methylpyrimidin-4-yl)pyridin-2-yl)acetamide] | ≥ 1000 nM | ≥ 1000 nM | ≤ 10 nM | 10 to 100 nM |  |  |  |  |  |  | 
10 | COc1ccc(-c2cnc(NC(C)=O)cc2Nc2cc(C)nc(C(C)(F)F)n2)nn1 [Example 676, N-(4-((2-(1,1-difluoroethyl)-6-methylpyrimidin-4-yl)amino)-5-(6-methoxypyridazin-3-yl)pyridin-2-yl)acetamide] |  |  |  | ≤ 10 nM |  |  |  |  | ≥ 1000 nM | ≥ 1000 nM | ≤ 10 nM
11 | CCOc1cnc(NC(=O)OC)cc1Nc1cc(C)nc(C(C)(F)F)n1 [Example 360, methyl (4-((2-(1,1-difluoroethyl)-6-methylpyrimidin-4-yl)amino)-5-ethoxypyridin-2-yl)carbamate] | ≥ 1000 nM | ≥ 1000 nM | ≤ 10 nM | 10 to 100 nM |  |  |  |  |  |  | 
12 | [2H]C([2H])(C)Oc1cnc(NC(C)=O)cc1Nc1cc(C(C)C)nc(C(C)(F)F)n1 [Example 364, N-(4-((2-(1,1-difluoroethyl)-6-isopropylpyrimidin-4-yl)amino)-5-(ethoxy-1,1-d2)pyridin-2-yl)acetamide] | ≥ 1000 nM | ≥ 1000 nM | ≤ 10 nM | 10 to 100 nM |  |  |  |  |  |  | 
13 | COCc1ccc(-c2cnc(NC(C)=O)cc2Nc2cc(C)nc(C34COC(C3)C4)n2)nc1 [Example 565, N-(4′-((2-(2-oxabicyclo[2.1.1]hexan-4-yl)-6-methylpyrimidin-4-yl)amino)-5-(methoxymethyl)-[2,3′-bipyridin]-6′-yl)acetamide] |  |  |  | ≤ 10 nM |  |  |  |  | ≥ 1000 nM | ≥ 1000 nM | ≤ 10 nM
14 | CCc1cc(Nc2cc(NC(C)=O)ncc2-c2ncccn2)nc(C(C)(F)F)n1 [Example 719, N-(4-((2-(1,1-difluoroethyl)-6-ethylpyrimidin-4-yl)amino)-5-(pyrimidin-2-yl)pyridin-2-yl)acetamide] |  |  |  | ≤ 10 nM |  |  |  |  | ≥ 1000 nM | ≥ 1000 nM | ≤ 10 nM
15 | CC(=O)Nc1cc(Nc2cc(C)nc(C(C)(F)F)n2)c(OC[C@H]2C[C@@H]2F)cn1 (racemic) [Example 426, Trans-rac-N-(4-((2-(1,1-difluoroethyl)-6-methylpyrimidin-4-yl)amino)-5-((2-fluorocyclopropyl)methoxy)pyridin-2-yl)acetamide] |  |  |  | ≤ 10 nM |  |  |  |  | ≥ 1000 nM | ≥ 1000 nM | ≤ 10 nM
16 | COc1cc(Nc2cc(NC(C)=O)ncc2-c2ccn(C)n2)nc(C(C)(F)F)n1 [Example 50, N-(4-((2-(1,1-difluoroethyl)-6-methoxypyrimidin-4-yl)amino)-5-(1-methyl-1H-pyrazol-3-yl)pyridin-2-yl)acetamide] | ≥ 1000 nM | ≥ 1000 nM | ≤ 10 nM | ≤ 10 nM |  |  |  |  |  |  | 
17 | [2H]C([2H])([2H])Oc1cnc(NC(C)=O)cc1Nc1cc(C(C)C)nc(C(C)(F)F)n1 [Example 315, N-(4-((2-(1,1-difluoroethyl)-6-isopropylpyrimidin-4-yl)amino)-5-(methoxy-d3)pyridin-2-yl)acetamide] | ≥ 1000 nM | ≥ 1000 nM | ≤ 10 nM | 10 to 100 nM |  |  |  |  |  |  | 
18 | CCOc1cnc(NC(C)=O)cc1Nc1cc(OC)nc(C(C)(F)F)n1 [Example 5, N-(4-((2-(1,1-difluoroethyl)-6-methoxypyrimidin-4-yl)amino)-5-ethoxypyridin-2-yl)acetamide] | ≥ 1000 nM | ≥ 1000 nM | ≤ 10 nM | 10 to 100 nM |  |  |  |  |  |  | 
19 | CC(=O)Nc1cc(Nc2ccnc(C(C)(F)F)n2)c(-c2ccc(F)cn2)cn1 [Example 580, N-(4′-((2-(1,1-difluoroethyl)pyrimidin-4-yl)amino)-5-fluorO[2,3′-bipyridin]-6′-yl)acetamide] |  |  |  | ≤ 10 nM |  |  |  |  | ≥ 1000 nM | ≥ 1000 nM | ≤ 10 nM
20 | CCc1cc(Nc2cc(NC(C)=O)ncc2-c2cnc(COC)cn2)nc(C(C)(F)F)n1 [Example 836, N-(4-((2-(1,1-difluoroethyl)-6-ethylpyrimidin-4-yl)amino)-5-(5-(methoxymethyl)pyrazin-2-yl)pyridin-2-yl)acetamide] |  |  |  |  | ≥ 1000 nM | ≥ 1000 nM | ≤ 10 nM | ≤ 10 nM |  |  | 
21 | CC(=O)Nc1cc(Nc2cc(C)nc(C(C)(F)F)n2)c(-c2cn3ccnc3cn2)cn1 [Example 681, N-(4-((2-(1,1-difluoroethyl)-6-methylpyrimidin-4-yl)amino)-5-(imidazo[1,2-a]pyrazin-6-yl)pyridin-2-yl)acetamide] |  |  |  | ≤ 10 nM |  |  |  |  | ≥ 1000 nM | ≥ 1000 nM | ≤ 10 nM
22 | CC(=O)Nc1cc(Nc2ccnc(C(C)(F)F)n2)c(-c2ccc(N(C)C)cn2)cn1 [Example 276, N-(4′-((2-(1,1-difluoroethyl)pyrimidin-4-yl)amino)-5-(dimethylamino)-[2,3′-bipyridin]-6′-yl)acetamide] | ≥ 1000 nM | ≥ 1000 nM | ≤ 10 nM | ≤ 10 nM |  |  |  |  |  |  | 
23 | COCCOc1cnc(NC(C)=O)cc1Nc1cc(C)nc(C(C)(C)F)n1 [Example 406, N-(4-((2-(2-fluoropropan-2-yl)-6-methylpyrimidin-4-yl)amino)-5-(2-methoxyethoxy)pyridin-2-yl)acetamide] |  |  |  | ≤ 10 nM |  |  |  |  | ≥ 1000 nM | ≥ 1000 nM | ≤ 10 nM
24 | CCOc1cnc(NC(C)=O)cc1Nc1cc(C2CC2)nc(C(C)(F)F)n1 [Example 13, N-(4-((6-cyclopropyl-2-(1,1-difluoroethyl)pyrimidin-4-yl)amino)-5-ethoxypyridin-2-yl)acetamide] | ≥ 1000 nM | ≥ 1000 nM | ≤ 10 nM | 10 to 100 nM |  |  |  |  |  |  | 
25 | CC(=O)Nc1cc(Nc2cc(C)nc(C(C)(F)F)n2)c(-c2cc3n(n2)CCN(C)C3)cn1 [Example 226, N-(4-((2-(1,1-difluoroethyl)-6-methylpyrimidin-4-yl)amino)-5-(5-methyl-4,5,6,7-tetrahydropyrazolo[1,5-a]pyrazin-2-yl)pyridin-2-yl)acetamide] | ≥ 1000 nM | 100 to 1000 nM | ≤ 10 nM | ≤ 10 nM |  |  |  |  |  |  | 
26 | [2H]C([2H])([2H])C([2H])([2H])Oc1cnc(NC(C)=O)cc1Nc1cc(CC)nc(C(C)(F)F)n1 [Example 515, N-(4-((2-(1,1-difluoroethyl)-6-ethylpyrimidin-4-yl)amino)-5-(ethoxy-d5)pyridin-2-yl)acetamide] |  |  |  | 10 to 100 nM |  |  |  |  | ≥ 1000 nM | ≥ 1000 nM | ≤ 10 nM

Reference: patent US20260028365A1 (BIOGEN MA INC., priority 2022, published 2026)
